Test results as given in PMC8286599 (Gut Pathogens, 2021).
Like-named read-outs stand apart in the source and are kept apart here.

Columns and labels:
MDR-EAEC strains [1] = test: Stability assay, pH (MIC)
Description: (§5) To explore the utility of phytochemicals as therapeutic molecules and their stability, individual phytochemicals were exposed to cationic salts, and different pH levels followed by analysing their MIC and MBC values against test strains as described earlier.
(§6) Subsequent to exposure to varied conditions, the antimicrobial activity of the phytochemicals was estimated by determining their MIC and MBC values against all the selected MDR strains of EAEC, S. Enteritidis, and S. Typhimurium as described earlier.

[2] = test system: MDR-S. Enteritidis strains; test: Stability assay, cationic salts (MIC)
Description: as §5, §6

[3] = test system: MDR-S. Enteritidis strains; test: MIC and MBC by broth microdilution with resazurin; format: cell-based, Salmonella Enteritidis; conditions: poultry droppings isolate
Description: (§1) The characterised MDR field strains of EAEC (E1; E2; E3), S. Enteritidis (S1; S2; S3), and S. Typhimurium (ST1; ST2; ST3) maintained in the laboratory repository of Meat Safety Laboratory of ICAR-National Research Centre on Meat, Hyderabad re-validated using PCR assays were used to evaluate the in vitro antibacterial efficacy of phytochemicals. E. coli ATCC 25922 was used as the quality control strain.
(§2) The antimicrobial efficacy of identified phytochemicals against multi-drug resistant EAEC and NTS strains was determined by estimating the minimum inhibitory concentration (MIC) and minimum bactericidal concentrations (MBC).
(§3) Subsequent to the incubation period, resazurin dye (0.015 %) was added to all the wells to determine the dye reduction (pink) and thereby the bacterial inhibition.

[4] = test system: MDR-S. Typhimurium strains; test: Stability assay, pH (MIC)
Description: as §5, §6

Haemolytic assay = format: cell-based; conditions: read-out: Haemolysis; for hemolysis at 0.5 X MIC: 0.50X MIC
Procedure: (§4) The haemolytic assay of the individual phytochemical was performed by measuring the release of haemoglobin from sheep and human ‘O’ erythrocytes at 540 nm. The percentage of haemolysis was calculated as (Asample – APBS)/ (ATriton−X – APBS) ×100, in which Asample is the absorbance of phytochemical treatment, APBS is the absorbance of untreated control with PBS, and ATriton−X is the absorbance of lysed cells treated with Triton X-100 measured at 540 nm.

[5] = Haemolytic assay, text summary; format: cell-based; conditions: sheep and human, sheep and human 'O' erythrocytes; read-out: Haemolysis
Procedure: as §4

[6] = test system: MDR-S. Typhimurium strains; test: Stability assay, cationic salts (MIC)
Description: as §5, §6

[7] = test system: MDR-S. Typhimurium strains; test: MIC and MBC by broth microdilution with resazurin; format: cell-based, Salmonella Typhimurium; conditions: poultry droppings isolate
Description: as §1, §2, §3

MDR-EAEC strains [8] = test: MIC and MBC by broth microdilution with resazurin; format: cell-based, enteroaggregative Escherichia coli; conditions: infant diarrhoea isolate
Description: as §1, §2, §3

MDR-EAEC strains [9] = test: Stability assay, cationic salts (MIC)
Description: as §5, §6

[10] = test system: MDR-S. Enteritidis strains; test: Stability assay, pH (MIC)
Description: as §5, §6

[11] = human 'O' erythrocytes, Human RBCs

## Cc1ccc(C(C)C)cc1O [Carvacrol, carvacrol]
MDR-EAEC strains [1]; pH 4, strain E1
  MIC at given pH: 0.5 µl/ml
MDR-EAEC strains [1]; pH 4, strain E2
  MIC at given pH: 1.0 µl/ml
MDR-EAEC strains [1]; pH 4, strain E3
  MIC at given pH: 0.5 µl/ml
MDR-EAEC strains [1]; pH 4.0 to 8.0, MDR-EAEC strains
  Change of MIC values at varied pH: two- to four-fold increase
MDR-EAEC strains [1]; pH 6, strain E1
  MIC at given pH: 0.5 µl/ml
MDR-EAEC strains [1]; pH 6, strain E2
  MIC at given pH: 1.0 µl/ml
MDR-EAEC strains [1]; pH 6, strain E3
  MIC at given pH: 0.5 µl/ml
MDR-EAEC strains [1]; pH 8, strain E1
  MIC at given pH: 0.5 µl/ml
MDR-EAEC strains [1]; pH 8, strain E2
  MIC at given pH: 1.0 µl/ml
MDR-EAEC strains [1]; pH 8, strain E3
  MIC at given pH: 0.5 µl/ml
[2]; 2 mM MgCl2, strain S1
  MIC with cationic salt: 0.5 µl/ml
[2]; 2 mM MgCl2, strain S2
  MIC with cationic salt: 0.5 µl/ml
[2]; 2 mM MgCl2, strain S3
  MIC with cationic salt: 0.5 µl/ml
[2]; 150 mM NaCl, strain S1
  MIC with cationic salt: 0.5 µl/ml
[2]; 150 mM NaCl, strain S2
  MIC with cationic salt: 1.0 µl/ml
[2]; 150 mM NaCl, strain S3
  MIC with cationic salt: 0.5 µl/ml
[3]; S. Enteritidis (S1)
  MBC: 0.50 µl/ml
  MIC: 0.12 µl/ml
[3]; S. Enteritidis (S2)
  MBC: 0.50 µl/ml
  MIC: 0.25 µl/ml
[3]; S. Enteritidis (S3)
  MBC: 0.50 µl/ml
  MIC: 0.25 µl/ml
[4]; pH 4, strain ST1
  MIC at given pH: 0.5 µl/ml
[4]; pH 4, strain ST2
  MIC at given pH: 0.5 µl/ml
[4]; pH 4, strain ST3
  MIC at given pH: 1.0 µl/ml
[4]; pH 6, strain ST1
  MIC at given pH: 0.5 µl/ml
[4]; pH 6, strain ST2
  MIC at given pH: 1.0 µl/ml
[4]; pH 6, strain ST3
  MIC at given pH: 1.0 µl/ml
[4]; pH 8, strain ST1
  MIC at given pH: 2.0 µl/ml
[4]; pH 8, strain ST2
  MIC at given pH: 1.0 µl/ml
[4]; pH 8, strain ST3
  MIC at given pH: 1.0 µl/ml
Haemolytic assay; [11]
  hemolysis at 0.25 X MIC: 2.66%
  hemolysis at 0.5 X MIC: 4.88%
  hemolysis at 1 X MIC: 11.2%
  hemolysis at 2 X MIC: 57.2%
  hemolysis at 4 X MIC: 82.1%
  hemolysis at 8 X MIC: 92.7%
Haemolytic assay; sheep erythrocytes, Sheep RBCs
  hemolysis at 0.25 X MIC: 0%
  hemolysis at 0.5 X MIC: 0.773%
  hemolysis at 1 X MIC: 1.25%
  hemolysis at 2 X MIC: 75.7%
  hemolysis at 4 X MIC: 81.8%
  hemolysis at 8 X MIC: 86%
[5]
  hemolysis: 57 to 82%
[6]; 2 mM MgCl2, strain ST1
  MIC with cationic salt: 0.5 µl/ml
[6]; 2 mM MgCl2, strain ST2
  MIC with cationic salt: 0.5 µl/ml
[6]; 2 mM MgCl2, strain ST3
  MIC with cationic salt: 0.5 µl/ml
[6]; 150 mM NaCl, strain ST1
  MIC with cationic salt: 0.5 µl/ml
[6]; 150 mM NaCl, strain ST2
  MIC with cationic salt: 0.5 µl/ml
[6]; 150 mM NaCl, strain ST3
  MIC with cationic salt: 0.5 µl/ml
[7]; S. Typhimurium (ST1)
  MBC: 0.50 µl/ml
  MIC: 0.12 µl/ml
[7]; S. Typhimurium (ST2)
  MBC: 0.50 µl/ml
  MIC: 0.12 µl/ml
[7]; S. Typhimurium (ST3)
  MBC: 0.50 µl/ml
  MIC: 0.12 µl/ml
MDR-EAEC strains [8]; EAEC (E1)
  MBC: 1.0 µl/ml
  MIC: 0.25 µl/ml
MDR-EAEC strains [8]; EAEC (E2)
  MBC: 0.50 µl/ml
  MIC: 0.50 µl/ml
MDR-EAEC strains [8]; EAEC (E3)
  MBC: 0.50 µl/ml
  MIC: 0.25 µl/ml
MDR-EAEC strains [9]; 2 mM MgCl2, strain E1
  MIC with cationic salt: 0.5 µl/ml
MDR-EAEC strains [9]; 2 mM MgCl2, strain E2
  MIC with cationic salt: 1.0 µl/ml
MDR-EAEC strains [9]; 2 mM MgCl2, strain E3
  MIC with cationic salt: 1.0 µl/ml
MDR-EAEC strains [9]; 150 mM NaCl and 2 mM MgCl2, MDR-EAEC strains
  Change of MIC values with cationic salts: two- to four-fold increase
MDR-EAEC strains [9]; 150 mM NaCl, strain E1
  MIC with cationic salt: 1.0 µl/ml
MDR-EAEC strains [9]; 150 mM NaCl, strain E2
  MIC with cationic salt: 1.0 µl/ml
MDR-EAEC strains [9]; 150 mM NaCl, strain E3
  MIC with cationic salt: 1.0 µl/ml
[10]; pH 4, strain S1
  MIC at given pH: 0.5 µl/ml
[10]; pH 4, strain S2
  MIC at given pH: 0.5 µl/ml
[10]; pH 4, strain S3
  MIC at given pH: 0.5 µl/ml
[10]; pH 6, strain S1
  MIC at given pH: 0.5 µl/ml
[10]; pH 6, strain S2
  MIC at given pH: 0.5 µl/ml
[10]; pH 6, strain S3
  MIC at given pH: 0.5 µl/ml
[10]; pH 8, strain S1
  MIC at given pH: 0.5 µl/ml
[10]; pH 8, strain S2
  MIC at given pH: 0.5 µl/ml
[10]; pH 8, strain S3
  MIC at given pH: 0.5 µl/ml
